Source: patent publication US8343459B2, “Method for production of radiation diagnostic imaging agent” (Nihon Medi-Physics Co., Ltd., priority 2007, dated 2013)

Assays:
[1] = Japanese Pharmaceutical Excipients Directory 2000; cited from earlier work
[2] = Relationship between pH and decrease of radiochemical purity (storage at 25° C., TLC analysis); assay type: physicochemical; conditions: pH value not more than 5.9, no pharmaceutical additives or buffers that prevent radiolysis
Method: Radioactivity of the obtained stock solution of anti-[^18F]-FACBC was measured, and then the stock solution was diluted with a physiological saline solution so as to have a radioactive concentration of about 510 MBq/mL at the time when experiment was initiated (0 hour in Table 9). 2.23 mL of this solution was aliquoted in a vial of 5 mL in volume, and a predetermined amount of a predetermined solution indicated in Table 8 was added thereto, to obtain a sample solution. The radioactive concentration of the sample solutions at the end of preparation was […].
The sample solution was stored in an electric thermostatic chamber adjusted to 25° C., and was then subjected to TLC analysis which was performed on the following conditions at the time of initiation of the experiment (0 hour) and 8.5 hours after the initiation of the experiment. Values of radiochemical purity were calculated in accordance with the following equation (1). Measurement of the radiochemical purity was repeated three times for each sample solution.
Mobile phase: acetonitrile/water/100% acetic acid=4/1/1
TLC plate: Silica Gel 60F254 (trade name, thickness: 0.25 mm, manufactured by Merck & Co., Inc.)
TLC scanner: Rita Star (manufactured by Raytest)
Number of analysis: Three times

Structure (SMILES)	maximum dose in case of intravenous administration [1] [g]	stability against radiolysis [2]
OC[C@@H](O)[C@H](O)[C@@H](O)CO [xylitol]	0.2	–
OC[C@@H](O)[C@@H](O)[C@H](O)[C@H](O)CO [mannitol]	1.2	–
OC[C@H]1O[C@H](O[C@H]2[C@H](O)[C@@H](O)[C@H](O)O[C@@H]2CO)[C@H](O)[C@@H](O)[C@@H]1O [martose]	10	–
O=C(CO)[C@@H](O)[C@H](O)[C@H](O)CO [fructose]	0.9	–
O=C[C@H](O)[C@@H](O)[C@H](O)[C@H](O)CO [glucose]	8	–
NC1(C(=O)O)CC([18F])C1 (centres unmarked) [[^18F]FACBC, 3-[^18F]fluoro-1-aminocyclobutanecarboxylic acid]	–	stability thereof is maintained
OC[C@H]1O[C@@H](O[C@H]2[C@H](O)[C@@H](O)C(O)O[C@@H]2CO)[C@H](O)[C@@H](O)[C@H]1O (some centres unmarked) [lactose]	1.25	–
OC[C@@H](O)[C@@H](O)[C@H](O)[C@@H](O)CO [sorbitol]	1.5	–
